Square brackets hold non-standard residues; d marks the D form. Peptide text beside a SMILES is read from it. pY = N[C@@H](Cc1ccc(OP(=O)(O)O)cc1)C(=O)O; pS = N[C@@H](COP(=O)(O)O)C(=O)O
Target: T1, His6STAT3^127-715 (Homo sapiens, UniProt P40763)
T1 construct: made in house; host or cells: E. coli BL21 (DE3)
Test: Biolayer interferometry (BLI): SteE^138-148 phosphopeptides binding to recombinant STAT3
Settings: Octet R8, 25 °C, biotinylated peptide immobilised on streptavidin sensors, pH 7.7, 0.005% Tween-20, steady-state one-site fit, read-out: Kd (affinity of SteE^138-148 phosphorylated peptide for STAT3)
Description: Recombinant Salmonella Typhimurium His6-SteE^ΔN20 and human His6-STAT3^127-715 were ligated into pET49 vector using Gibson Assembly; the N-terminal His6-tag is cleavable with HRV 3 C protease.
Binding affinities of His6-STAT3^127-715 to SteE peptides were derived from […] measured on an Octet R8 system (Sartorius) at 25 °C. Biotinylated SteE peptides were synthesised by the Chemical Biology Science Technology Platform at the Francis Crick Institute and dissolved from lyophilised stock in the respective protein buffer to which 0.005% Tween-20 was added (BLI buffer). Appropriate serial dilutions of His6-STAT3^127-715 were prepared in 25 mM HEPES, 200 mM NaCl, 10 mM MgCl2, 0.5 mM TCEP at pH 7.7. SteE peptides were immobilised on Streptavidin (SA) sensors at 0.2 µg/mL by incubation until the linear signal increase started to plateau (up to 160 s), followed by a sensor wash in BLI buffer for 50 s to stabilise the baseline. Association was recorded by incubating the sensors with His6-STAT3^127-715 for 300 s. Subsequent dissociation in BLI buffer was followed for up to 300 s. Data were acquired using Octet BLI Discovery software 12.2.2.20 and processed with Octet BLI Analysis software 12.2.2.4 by subtraction of reference wells without protein and y alignment of the data to the baseline. […]

T1 sequence (P40763 127-715): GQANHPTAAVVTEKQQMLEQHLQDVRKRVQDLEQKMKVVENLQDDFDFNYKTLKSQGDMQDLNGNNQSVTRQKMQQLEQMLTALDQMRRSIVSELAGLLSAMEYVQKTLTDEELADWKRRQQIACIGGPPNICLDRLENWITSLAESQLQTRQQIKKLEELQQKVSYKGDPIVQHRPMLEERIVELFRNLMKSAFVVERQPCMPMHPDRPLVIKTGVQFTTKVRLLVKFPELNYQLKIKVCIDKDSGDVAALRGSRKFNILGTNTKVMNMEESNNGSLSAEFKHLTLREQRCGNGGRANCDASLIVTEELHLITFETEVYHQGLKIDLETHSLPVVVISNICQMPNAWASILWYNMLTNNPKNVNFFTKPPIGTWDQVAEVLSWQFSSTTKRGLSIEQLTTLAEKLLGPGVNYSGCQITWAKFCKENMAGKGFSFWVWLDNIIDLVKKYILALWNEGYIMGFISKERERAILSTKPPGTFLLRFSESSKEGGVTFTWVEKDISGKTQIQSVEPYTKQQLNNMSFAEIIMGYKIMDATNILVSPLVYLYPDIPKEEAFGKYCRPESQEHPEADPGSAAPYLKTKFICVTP

CC[C@H](C)[C@H](NC(=O)[C@H](Cc1ccc(OP(=O)(O)O)cc1)NC(=O)CNC(=O)[C@H](COP(=O)(O)O)NC(=O)[C@@H]1CCCN1C(=O)[C@@H]1CCCN1C(=O)[C@@H](N)CC(N)=O)C(=O)N[C@@H](C)C(=O)N[C@@H](CCC(N)=O)C(=O)N[C@@H](Cc1ccc(O)cc1)C(=O)N[C@@H](CCCNC(=N)N)C(=O)O [SteE_pS141pY143] (H-NPP[pS]G[pY]IAQYR-OH)
Kd: 1.4 ± 0.08 µM

Reference: article PMC12287357, “Bacterial effectors mediate kinase reprogramming through mimicry of conserved eukaryotic motifs” (EMBO Reports, 2025)
